1 compound from PMC4579064 (Toxicology and applied pharmacology, 2015) can be followed below.

One data set concerns the target CYP2C19 (Homo sapiens, UniProt P33261). As to the kind of experiment: recombinant CYP activity with fluorogenic substrate. It counts as biochemical.
In the next data set the target is T1, CYP2C8 (Homo sapiens, UniProt P10632).
T1 sequence (P10632 1-490): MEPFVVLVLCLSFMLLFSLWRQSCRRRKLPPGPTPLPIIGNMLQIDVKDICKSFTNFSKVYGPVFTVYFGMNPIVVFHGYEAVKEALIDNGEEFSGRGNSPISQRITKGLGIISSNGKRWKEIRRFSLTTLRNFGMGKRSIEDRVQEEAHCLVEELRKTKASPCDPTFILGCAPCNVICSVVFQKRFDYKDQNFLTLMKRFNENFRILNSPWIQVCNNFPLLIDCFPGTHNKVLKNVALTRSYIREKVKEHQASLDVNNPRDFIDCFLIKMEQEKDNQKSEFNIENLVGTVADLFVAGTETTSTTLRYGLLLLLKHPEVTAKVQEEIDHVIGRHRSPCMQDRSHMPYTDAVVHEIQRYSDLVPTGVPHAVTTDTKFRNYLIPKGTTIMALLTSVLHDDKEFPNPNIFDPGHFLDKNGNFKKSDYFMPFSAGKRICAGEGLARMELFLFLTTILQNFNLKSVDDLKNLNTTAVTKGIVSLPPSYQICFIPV
The description is as above. It counts as biochemical.

The test system of the next data set is brain ChE. As to the kind of experiment: brain ChE activity in parathion-treated rats. It counts as in vivo, rat. Conditions: parathion 8 mg/kg oral, menadione 40 mg/kg ip 20 min after parathion, 60 min.
In data set [1] the target is T2, recombinant human CPR (Homo sapiens, UniProt P16435).
T2 sequence (P16435 1-677): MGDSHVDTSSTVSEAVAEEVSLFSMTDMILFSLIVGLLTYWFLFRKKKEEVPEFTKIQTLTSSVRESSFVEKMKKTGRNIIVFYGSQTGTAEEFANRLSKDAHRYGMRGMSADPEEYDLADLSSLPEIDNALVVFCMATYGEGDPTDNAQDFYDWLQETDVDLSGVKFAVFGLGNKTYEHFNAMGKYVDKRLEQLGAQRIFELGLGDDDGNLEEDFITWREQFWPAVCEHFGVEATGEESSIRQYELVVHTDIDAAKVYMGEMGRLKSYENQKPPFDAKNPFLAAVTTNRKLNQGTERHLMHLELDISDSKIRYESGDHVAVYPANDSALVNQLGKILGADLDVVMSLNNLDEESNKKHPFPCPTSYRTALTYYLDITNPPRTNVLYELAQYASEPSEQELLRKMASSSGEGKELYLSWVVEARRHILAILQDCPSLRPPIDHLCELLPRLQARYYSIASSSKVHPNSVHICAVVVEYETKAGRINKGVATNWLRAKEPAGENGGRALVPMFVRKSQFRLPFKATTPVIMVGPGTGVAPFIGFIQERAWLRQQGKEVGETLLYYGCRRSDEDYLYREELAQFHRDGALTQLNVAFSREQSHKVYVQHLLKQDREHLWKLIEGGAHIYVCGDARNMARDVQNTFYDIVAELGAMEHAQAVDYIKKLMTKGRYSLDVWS
In words: CPR-mediated redox cycling, hydroxyl radical formation. The data set is classed as biochemical. The settings on record: menadione; Fe/EDTA, terephthalate.

The target of data set [2] is T2, recombinant human CPR. In words: CPR-mediated redox cycling, H2O2 formation. Conditions: menadione as redox cycling substrate of CPR; Amplex Red. It counts as biochemical.
Data set [3] is classed as in vivo, rat. The settings on record: menadione 20 min after parathion; 60 min.
The target in data set [4] is T3, CYP2B6 (Homo sapiens, UniProt P20813).
T3 sequence (P20813 1-491): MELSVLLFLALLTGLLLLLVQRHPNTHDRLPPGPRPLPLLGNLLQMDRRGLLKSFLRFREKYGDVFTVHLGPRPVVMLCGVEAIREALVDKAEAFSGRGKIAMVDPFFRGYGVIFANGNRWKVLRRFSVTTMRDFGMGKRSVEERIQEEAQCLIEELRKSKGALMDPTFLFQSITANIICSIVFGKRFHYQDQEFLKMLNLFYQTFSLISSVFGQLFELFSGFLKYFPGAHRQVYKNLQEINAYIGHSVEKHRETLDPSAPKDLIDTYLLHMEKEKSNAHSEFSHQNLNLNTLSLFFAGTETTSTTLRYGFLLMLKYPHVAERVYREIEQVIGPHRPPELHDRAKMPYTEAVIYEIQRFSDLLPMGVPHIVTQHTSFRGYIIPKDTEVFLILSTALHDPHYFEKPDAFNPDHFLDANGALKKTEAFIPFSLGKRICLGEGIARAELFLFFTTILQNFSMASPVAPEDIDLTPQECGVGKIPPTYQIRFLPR
As to the kind of experiment: recombinant CYP activity with fluorogenic substrate. It counts as biochemical.

For data set [5], the target named is T3, CYP2B6.
For a further data set, the target named is CYP2E1 (Homo sapiens, UniProt P05181). As to the kind of experiment: recombinant CYP activity with fluorogenic substrate. It counts as biochemical.
For a further data set, the target named is T4, CYP2A6 (Homo sapiens, UniProt P11509).
T4 sequence (P11509 1-494): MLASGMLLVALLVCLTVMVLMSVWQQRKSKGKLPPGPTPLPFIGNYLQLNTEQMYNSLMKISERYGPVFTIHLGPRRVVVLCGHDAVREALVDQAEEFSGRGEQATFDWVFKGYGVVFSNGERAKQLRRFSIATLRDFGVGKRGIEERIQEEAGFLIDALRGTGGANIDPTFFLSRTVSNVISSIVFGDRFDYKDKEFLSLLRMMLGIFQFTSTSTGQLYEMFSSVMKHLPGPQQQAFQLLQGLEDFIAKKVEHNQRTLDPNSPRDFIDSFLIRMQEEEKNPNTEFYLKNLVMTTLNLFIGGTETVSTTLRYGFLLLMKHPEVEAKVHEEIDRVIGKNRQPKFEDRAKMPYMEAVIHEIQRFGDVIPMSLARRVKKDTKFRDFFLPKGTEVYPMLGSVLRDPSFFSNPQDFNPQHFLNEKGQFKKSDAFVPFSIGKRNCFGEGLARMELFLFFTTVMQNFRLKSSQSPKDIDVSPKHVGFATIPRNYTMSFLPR
Described as above. It counts as biochemical.

For the next data set, the system named is female Long-Evans rats. Conditions: menadione 40 mg/kg ip 20 min after parathion 8 mg/kg oral.
The next data set deals with CYP3A4 (Homo sapiens, UniProt P08684).
The next data set deals with CYP3A5 (Homo sapiens, UniProt P20815). In words: recombinant CYP activity with fluorogenic substrate. It counts as biochemical.
For a further data set, the target named is CYP2C9 (Homo sapiens, UniProt P11712). The description is as above. The data set is classed as biochemical.
Chain of CYP2C9 (P11712 whole entry, one chain of several): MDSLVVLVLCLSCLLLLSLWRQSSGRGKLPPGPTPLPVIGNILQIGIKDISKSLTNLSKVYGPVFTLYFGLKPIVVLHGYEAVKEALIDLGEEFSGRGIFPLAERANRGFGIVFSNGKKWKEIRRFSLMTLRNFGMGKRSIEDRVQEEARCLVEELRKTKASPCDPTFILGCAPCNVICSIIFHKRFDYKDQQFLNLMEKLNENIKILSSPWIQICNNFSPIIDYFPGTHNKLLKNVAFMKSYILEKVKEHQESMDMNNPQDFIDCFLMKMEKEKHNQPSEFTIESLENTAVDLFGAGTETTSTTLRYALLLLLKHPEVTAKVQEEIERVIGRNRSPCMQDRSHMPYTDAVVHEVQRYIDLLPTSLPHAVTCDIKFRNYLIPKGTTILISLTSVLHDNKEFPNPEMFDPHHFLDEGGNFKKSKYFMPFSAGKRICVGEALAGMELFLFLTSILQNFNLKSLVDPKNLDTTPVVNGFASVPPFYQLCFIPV

Chain of CYP3A4 (P08684 2-503 limits assumed): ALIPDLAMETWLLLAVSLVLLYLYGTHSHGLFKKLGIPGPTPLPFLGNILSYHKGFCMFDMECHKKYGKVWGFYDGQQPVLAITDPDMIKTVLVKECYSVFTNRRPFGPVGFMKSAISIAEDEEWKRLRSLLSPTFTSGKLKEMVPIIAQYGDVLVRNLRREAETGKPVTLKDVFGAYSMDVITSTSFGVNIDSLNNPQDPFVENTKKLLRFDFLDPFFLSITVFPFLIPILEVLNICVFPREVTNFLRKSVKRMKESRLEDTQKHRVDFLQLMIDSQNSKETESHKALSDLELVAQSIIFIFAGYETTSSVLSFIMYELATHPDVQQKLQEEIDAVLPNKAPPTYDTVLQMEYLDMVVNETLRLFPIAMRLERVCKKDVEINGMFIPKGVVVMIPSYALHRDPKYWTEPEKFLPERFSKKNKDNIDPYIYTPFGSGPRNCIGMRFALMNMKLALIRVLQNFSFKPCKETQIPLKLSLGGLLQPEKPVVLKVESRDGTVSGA
Chain of CYP2E1 (P05181 whole entry, one chain of several): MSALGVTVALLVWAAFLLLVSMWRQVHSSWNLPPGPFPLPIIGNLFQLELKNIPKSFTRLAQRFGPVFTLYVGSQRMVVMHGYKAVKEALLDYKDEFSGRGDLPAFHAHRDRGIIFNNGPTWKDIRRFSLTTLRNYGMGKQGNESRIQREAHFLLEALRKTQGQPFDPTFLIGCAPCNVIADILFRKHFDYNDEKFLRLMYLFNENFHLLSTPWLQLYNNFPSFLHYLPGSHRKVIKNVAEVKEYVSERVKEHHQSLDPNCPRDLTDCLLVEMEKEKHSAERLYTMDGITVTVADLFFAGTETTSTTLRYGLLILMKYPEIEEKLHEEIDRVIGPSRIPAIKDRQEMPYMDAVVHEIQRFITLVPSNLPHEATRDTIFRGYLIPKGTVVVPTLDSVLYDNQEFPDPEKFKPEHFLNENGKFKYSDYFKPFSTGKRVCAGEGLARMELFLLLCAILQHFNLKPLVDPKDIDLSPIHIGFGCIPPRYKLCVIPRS
Chain of CYP3A5 (P20815 whole entry, one chain of several): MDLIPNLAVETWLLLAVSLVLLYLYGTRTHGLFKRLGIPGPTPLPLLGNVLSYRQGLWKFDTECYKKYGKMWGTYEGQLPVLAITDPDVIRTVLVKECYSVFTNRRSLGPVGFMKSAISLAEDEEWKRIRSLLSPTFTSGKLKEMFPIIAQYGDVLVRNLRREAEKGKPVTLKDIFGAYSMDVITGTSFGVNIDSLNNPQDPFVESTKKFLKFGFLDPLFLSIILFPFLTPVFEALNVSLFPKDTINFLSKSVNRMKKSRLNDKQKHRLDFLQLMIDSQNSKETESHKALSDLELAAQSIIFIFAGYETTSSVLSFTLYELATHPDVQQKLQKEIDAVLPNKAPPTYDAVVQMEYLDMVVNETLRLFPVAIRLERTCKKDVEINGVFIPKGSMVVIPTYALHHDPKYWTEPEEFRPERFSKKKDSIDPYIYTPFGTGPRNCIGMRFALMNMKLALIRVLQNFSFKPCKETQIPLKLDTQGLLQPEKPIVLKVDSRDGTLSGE
Chain of CYP2C19 (P33261 whole entry, one chain of several): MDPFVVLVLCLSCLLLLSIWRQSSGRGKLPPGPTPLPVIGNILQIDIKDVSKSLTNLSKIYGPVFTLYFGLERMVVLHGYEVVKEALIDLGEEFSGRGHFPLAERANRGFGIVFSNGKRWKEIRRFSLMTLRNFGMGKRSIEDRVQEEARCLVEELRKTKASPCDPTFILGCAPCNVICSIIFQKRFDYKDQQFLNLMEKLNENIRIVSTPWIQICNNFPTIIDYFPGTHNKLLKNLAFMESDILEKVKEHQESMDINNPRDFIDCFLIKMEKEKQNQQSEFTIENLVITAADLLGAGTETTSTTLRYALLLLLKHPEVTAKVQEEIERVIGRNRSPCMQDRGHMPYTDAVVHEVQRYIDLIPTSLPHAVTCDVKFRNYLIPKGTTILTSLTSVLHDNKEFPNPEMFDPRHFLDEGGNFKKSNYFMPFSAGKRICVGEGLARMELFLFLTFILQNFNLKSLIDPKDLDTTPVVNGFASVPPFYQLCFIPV

Turning to `CC1=CC(=O)c2ccccc2C1=O` [menadione, 2-methylnaphthalene-1,4-dione], the IC50 (usually the point on the concentration scale where inhibition reaches its midpoint) at CYP2C19 is 8.51 ± 0.38 µM; at CYP2C8, 2.36 ± 0.11 µM; on CYP2B6 [4] it was 5.76 ± 0.78 µM; at CYP2E1, 5.58 ± 1.22 µM; at CYP2A6 it was 8.01 ± 0.62 µM; on CYP3A5, 9.77 ± 3.33 µM. The IC50 at CYP2C9 came out at 8.91 ± 0.57 µM. Besides, the “forebrain ChE inhibited” value with brain ChE was 11%. Besides, the “hindbrain ChE inhibited” value in the data set with brain ChE is recorded as 17%. Moreover, the “Vmax for formation of 2-hydroxyterephthalate, a marker of hydroxyl radicals” value at recombinant human CPR [1] came out at 1.2 µmol/min/mg CPR protein. At recombinant human CPR [2], the “Vmax for H2O2 formation” value was determined as 4.4 µmol/min/mg CPR protein. The “liver levels of parathion” value in data set [3] was “without altering”. For the same compound, the parathion in blood entry in data set [3] is recorded as “striking increase”. Further, the “serum and brain parathion levels” value in data set [3] was “significant increases”. For the same compound, the paraoxon formation entry on CYP2B6 [5] and on CYP3A4 was “marked decrease” in each case. In the data set on female Long-Evans rats, the “parathion toxicity (startle response, tremulous jaw movement, tremors and convulsions)” value is recorded as “marked reduction”.
